Values joined by “and” are separate entries in the source; they are usually repeats but may differ in a detail not shown here. Identical values can stand only once. “Also recorded” adds a separate entry of the source.
What was measured:
[1] = test system: TGFβ/Smad Signaling Pathway SBE Reporter—HEK293 Cell Line; assay: TGFβ/Smad SBE reporter luciferase assay in HEK293 cells stimulated with human TGFβ1; assay type: cell-based; conditions: 4 h compound, then TGFβ1 20 ng/ml ~18 h
Description: • 1. TGFβ/Smad Signaling Pathway SBE Reporter—HEK293 Cell Line BPS Bioscience Catalog #: 60653 • 2. Human TGFβ1 (BPS Bioscience #90900-1) • 3. SIS3 (Sigma #S0447): inhibitor of TGFβ pathway. Prepare stock soln. in DMSO • 4. Growth medium: MEM medium (Invitrogen #11095-080)+10% FBS (ATCC #30-2020)+1% non-essential amino acids (Lonza #13-114E)+1 mM Na pyruvate (Lonza #13-115E)+1% Penicillin/Streptomycin (ATCC #30-2300)+400 μg/ml of Geneticin (Invitrogen #11811-031) • 5. Assay medium: MEM medium+0.5% FBS+1% non-essential amino acids+1 mM Na pyruvate+1% Pen/Strep • 6. 96-well tissue culture-treated white clear-bottom assay plate (Corning #3610) • 7. ONE-Step™ Luciferase Assay System (BPS, Cat. #60690)
SBE reporter-HEK293 cells were harvested from culture in growth medium and seeded at a density of ˜10,000 cells per well into a white clear-bottom 96-well microplate in 100 μl of assay medium. The plate containing cells was incubated at 37° C. in a CO2 incubator. 24 h after seeding, cells were washed with 100 μL of assay buffer and treated with three-fold serial dilution of compounds in 50 μl assay medium. […]
After 18 h of incubation, Luciferase assay was performed using ONE-Step™ Luciferase Assay System according to the protocol provided: 50 μl of ONE-Step™ Luciferase reagent was added per well and shook at room temperature for […]. Luminescence was measured using a luminometer.

B16-F10 syngeneic model = assay: Subcutaneous B16-F10 syngeneic model, tumor growth; assay type: in vivo, C57BL/6 mice
Description: In order to evaluate the in vivo efficacy of SIS3 and novel compounds of the present invention, a study has been conducted in treatment of the subcutaneous B16-F10 syngeneic models.
• Animal species and strain: C57BL/6 mice • History of treatment: Naive • Sex, age and weight: Female, 6-8 weeks • Breeder/supplier: Shanghai SLAC Laboratory Animal Co. Ltd • Adaptation: At least 7 days • Room: SPF Room • Room temperature: 20-26° C. • Room relative humidity: 40-70% • Light cycle: Fluorescent light for 12-hour light (08:00-20:00) and 12-hour dark • Animal hosting: 2-5 mice/cage each group • Food: Free access to food • Water: Free access to water (municipal tap water filtered by reverse osmosis or high-pressure sterilizer)
B16-F10 cell was maintained at 37° C. under 5% CO2 in DMEM medium supplemented with 10% FBS and were subsequently cultured within 10 passages before inoculated into the mice.
B16-F10 cells (3×10^5 in 100 μL of serum-free medium) were inoculated to each of C57BL/6 mice via s.c. under anesthesia by 3-4% isoflurane. Each group contains 15 mice.
When average tumor volume reached 35-60 mm^3, 15 mice were randomized into group 6. The day of inoculation was denoted as day 0.
Tumor dimensions were measured on Day 4, 5, 6, 8, 11, 13, 15 and 18, after inoculation in 2 dimensions with calipers.
When required, tumor volume was measured daily. The tumor volume (V) was calculated as follows: V=(length×width^2)/2.
The individual relative tumor volume (RTV) was calculated as follows: RTV=Vt/V0, where Vt was the volume on each day, and V0 was the volume at the beginning of the treatment.
Tumor growth inhibition (TGI), TGI=(1−(Ti−T0)/(Ci−C0))×100%; Ti and Ci as the mean tumor volumes of the treatment and control groups on the measurement day; T0 and C0 as the mean tumor volumes of the treatment and control groups on day 0
Results were expressed as mean±S.E.M. Comparisons between two groups were made by Dunnett's multi-comparison test, p<0.05 were considered as significant.

[2] = single agent, i.p. QD*3 weeks, SIS3 10 and 30 mg/kg, MO-00005 10, 30 and 100 mg/kg, vs vehicle

SMILES: COc1cc2c(cc1OC)CN(C(=O)/C=C/c1c(-c3ccccc3)n(C)c3ncccc13)CC2.Cl [SIS3, reference compound]
- IC50 [1]: 2960 nM
- Tumor Sizes (mm3) Mean (B16-F10 syngeneic model; 10 mg/kg q.d. * 3W i.p., Day 4 (estimated value)): 0.87 mm3
- Relative tumor volume Mean (B16-F10 syngeneic model; 10 mg/kg q.d. * 3W i.p., Day 4, RTV=Vt/V0): 0.04
- Tumor Sizes (mm3) Mean (B16-F10 syngeneic model; 10 mg/kg q.d. * 3W i.p., Day 5 (estimated value)): 1.10 mm3 and 1.1 mm3
- Relative tumor volume Mean (B16-F10 syngeneic model; 10 mg/kg q.d. * 3W i.p., Day 5, RTV=Vt/V0): 0.05
- Tumor Sizes (mm3) Mean (B16-F10 syngeneic model; 10 mg/kg q.d. * 3W i.p., Day 6 (estimated value)): 3.36 mm3
- Relative tumor volume Mean (B16-F10 syngeneic model; 10 mg/kg q.d. * 3W i.p., Day 6, RTV=Vt/V0): 0.12
- Tumor Sizes (mm3) Mean (B16-F10 syngeneic model; 10 mg/kg q.d. * 3W i.p., Day 8): 43.65 mm3
- Relative tumor volume Mean (B16-F10 syngeneic model; 10 mg/kg q.d. * 3W i.p., Day 8, RTV=Vt/V0): 1.00
- Tumor Sizes (mm3) Mean (B16-F10 syngeneic model; 10 mg/kg q.d. * 3W i.p., Day 11): 156.77 mm3
- Relative tumor volume Mean (B16-F10 syngeneic model; 10 mg/kg q.d. * 3W i.p., Day 11, RTV=Vt/V0): 4.07
- Tumor growth inhibition (%) TGI (B16-F10 syngeneic model; 10 mg/kg q.d. * 3W i.p., Day 11, calculated based on tumor volume of Day 8): 29%
- Tumor Sizes (mm3) Mean (B16-F10 syngeneic model; 10 mg/kg q.d. * 3W i.p., Day 13): 443.17 mm3
- Relative tumor volume Mean (B16-F10 syngeneic model; 10 mg/kg q.d. * 3W i.p., Day 13, RTV=Vt/V0): 12.20
- Tumor growth inhibition (%) TGI (B16-F10 syngeneic model; 10 mg/kg q.d. * 3W i.p., Day 13, calculated based on tumor volume of Day 8): 26%
- Tumor Sizes (mm3) Mean (B16-F10 syngeneic model; 10 mg/kg q.d. * 3W i.p., Day 15): 793.01 mm3
- Relative tumor volume Mean (B16-F10 syngeneic model; 10 mg/kg q.d. * 3W i.p., Day 15, RTV=Vt/V0): 22.19
- Tumor growth inhibition (%) TGI (B16-F10 syngeneic model; 10 mg/kg q.d. * 3W i.p., Day 15, calculated based on tumor volume of Day 8): 25%
- Tumor Sizes (mm3) Mean (B16-F10 syngeneic model; 10 mg/kg q.d. * 3W i.p., Day 18): 2209.13 mm3
- Relative tumor volume Mean (B16-F10 syngeneic model; 10 mg/kg q.d. * 3W i.p., Day 18, RTV=Vt/V0): 62.21
- Tumor growth inhibition (%) TGI (B16-F10 syngeneic model; 10 mg/kg q.d. * 3W i.p., Day 18, calculated based on tumor volume of Day 8): 21%
- Tumor Sizes (mm3) Mean (B16-F10 syngeneic model; 30 mg/kg q.d. * 3W i.p., Day 4 (estimated value)): 0.28 mm3
- Relative tumor volume Mean (B16-F10 syngeneic model; 30 mg/kg q.d. * 3W i.p., Day 4, RTV=Vt/V0): 0.01
- Tumor Sizes (mm3) Mean (B16-F10 syngeneic model; 30 mg/kg q.d. * 3W i.p., Day 5 (estimated value)): 0.46 mm3
- Relative tumor volume Mean (B16-F10 syngeneic model; 30 mg/kg q.d. * 3W i.p., Day 5, RTV=Vt/V0): 0.01
- Tumor Sizes (mm3) Mean (B16-F10 syngeneic model; 30 mg/kg q.d. * 3W i.p., Day 6 (estimated value)): 3.44 mm3
- Relative tumor volume Mean (B16-F10 syngeneic model; 30 mg/kg q.d. * 3W i.p., Day 6, RTV=Vt/V0): 0.12
- Tumor Sizes (mm3) Mean (B16-F10 syngeneic model; 30 mg/kg q.d. * 3W i.p., Day 8): 49.16 mm3
- Relative tumor volume Mean (B16-F10 syngeneic model; 30 mg/kg q.d. * 3W i.p., Day 8, RTV=Vt/V0): 1.00
- Tumor Sizes (mm3) Mean (B16-F10 syngeneic model; 30 mg/kg q.d. * 3W i.p., Day 11): 163.60 mm3 and 163.6 mm3
- Relative tumor volume Mean (B16-F10 syngeneic model; 30 mg/kg q.d. * 3W i.p., Day 11, RTV=Vt/V0): 3.98
- Tumor growth inhibition (%) TGI (B16-F10 syngeneic model; 30 mg/kg q.d. * 3W i.p., Day 11, calculated based on tumor volume of Day 8): 28%
- Tumor Sizes (mm3) Mean (B16-F10 syngeneic model; 30 mg/kg q.d. * 3W i.p., Day 13): 379.84 mm3
- Relative tumor volume Mean (B16-F10 syngeneic model; 30 mg/kg q.d. * 3W i.p., Day 13, RTV=Vt/V0): 9.22
- Tumor Sizes (mm3) Mean (B16-F10 syngeneic model; 30 mg/kg q.d. * 3W i.p., Day 15): 786.37 mm3
- Relative tumor volume Mean (B16-F10 syngeneic model; 30 mg/kg q.d. * 3W i.p., Day 15, RTV=Vt/V0): 23.71
- Tumor Sizes (mm3) Mean (B16-F10 syngeneic model; 30 mg/kg q.d. * 3W i.p., Day 18): 2131.42 mm3
- Relative tumor volume Mean (B16-F10 syngeneic model; 30 mg/kg q.d. * 3W i.p., Day 18, RTV=Vt/V0): 70.14
- anti-tumor activity against the B16-F10 syngeneic model (in words) (B16-F10 syngeneic model; [2]): anti-tumor response; also recorded: significant anti-tumor activity
- efficacy on tumor weight (in words) (B16-F10 syngeneic model; [2]): significant efficacy on tumor weight

— patent US12090149B2, “SMAD3 inhibitors” (Moexa Pharmaceuticals Limited, priority 2018, dated 2024)
